Data reported in paper PMC8448983 (European journal of medicinal chemistry, 2021).
Where two headings read alike, the source gives them in different places. Marks after values point to notes of the source that are not given here.

Legend:
[1] = target: T1, human A1 adenosine receptor (Homo sapiens, UniProt P30542); assay: Radioligand binding, HEK293 cells expressing human A1 receptor; details: for percent of inhibition, A1 AR: 10 μM compound
T1 sequence (P30542 1-326): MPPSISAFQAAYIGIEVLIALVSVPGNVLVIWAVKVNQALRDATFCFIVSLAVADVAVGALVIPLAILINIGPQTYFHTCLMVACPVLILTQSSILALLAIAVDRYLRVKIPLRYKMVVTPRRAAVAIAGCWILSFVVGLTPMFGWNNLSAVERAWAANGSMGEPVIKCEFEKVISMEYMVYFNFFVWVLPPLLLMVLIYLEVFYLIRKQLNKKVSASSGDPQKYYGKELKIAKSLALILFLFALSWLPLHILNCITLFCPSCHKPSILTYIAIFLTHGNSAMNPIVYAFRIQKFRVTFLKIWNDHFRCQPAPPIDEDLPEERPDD

[2] = target: T2, human A3 adenosine receptor (Homo sapiens, UniProt P0DMS8); assay: Radioligand binding, HEK293 cells expressing human A3 receptor; details: for activity class (active / inactive) in SAR and selectivity analysis / receptor selectivity class: compounds 33–52, NIH binding data; for Ki: read-out: Ki, A3 AR, [125I]-N6-(4-amino-3-iodobenzyl)adenosine-5′-N-methyluronamide; for Ki / percent of inhibition, A3 AR: NIH laboratory, HEK293; for percent of inhibition, A3 AR: 10 μM compound, agonist radioligand
T2 sequence (P0DMS8 1-318): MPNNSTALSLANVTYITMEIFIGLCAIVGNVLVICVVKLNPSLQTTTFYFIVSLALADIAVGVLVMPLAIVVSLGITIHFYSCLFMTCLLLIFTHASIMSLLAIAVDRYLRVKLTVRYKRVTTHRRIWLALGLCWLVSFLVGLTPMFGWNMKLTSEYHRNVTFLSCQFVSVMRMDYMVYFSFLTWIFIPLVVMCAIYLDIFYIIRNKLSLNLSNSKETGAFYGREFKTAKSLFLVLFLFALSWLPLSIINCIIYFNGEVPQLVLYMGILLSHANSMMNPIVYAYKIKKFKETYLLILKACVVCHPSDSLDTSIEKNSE

[3] = target: T3, human A2A adenosine receptor (Homo sapiens, UniProt P29274); assay: Radioligand binding, HEK293 cells expressing human A2A receptor; details: for percent of inhibition, A2A AR: 10 μM compound, NIH laboratory, agonist radioligand
human blood platelets = assay: ADP-induced platelet aggregation in platelet-rich plasma; format: cell-based; details: 10 μM ADP, mean ± SD, n = 6–9
[4] = target: T3, human A2A adenosine receptor; details: 10 μM compound; USEF; HeLa-A2A membranes; 3 nM [3H]-ZM241385
[5] = target: T4, human A2B adenosine receptor (Homo sapiens, UniProt P29275); details: USEF, HEK-A2B membranes, 25 nM [3H]-DPCPX; for percent of inhibition, A2B AR: 10 μM compound
T4 sequence (P29275 1-332): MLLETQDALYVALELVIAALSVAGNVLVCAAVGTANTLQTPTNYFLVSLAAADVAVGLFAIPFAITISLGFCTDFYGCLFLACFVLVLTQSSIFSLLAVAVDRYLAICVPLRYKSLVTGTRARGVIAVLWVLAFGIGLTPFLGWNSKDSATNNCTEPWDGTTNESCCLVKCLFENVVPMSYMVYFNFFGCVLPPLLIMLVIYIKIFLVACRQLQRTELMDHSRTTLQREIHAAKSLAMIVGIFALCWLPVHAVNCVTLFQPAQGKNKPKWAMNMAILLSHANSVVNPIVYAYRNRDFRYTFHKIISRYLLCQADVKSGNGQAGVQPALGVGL

[6] = target: T1, human A1 adenosine receptor; details: 10 μM compound; USEF; CHO-A1 membranes; 1 nM [3H]-DPCPX
[7] = target: T2, human A3 adenosine receptor; details: for percent of inhibition, A3 AR: 10 μM compound; for percent of inhibition, A3 AR / Ki: USEF, HeLa-A3 membranes, 10 nM [3H]-NECA; for activity class (active / inactive) in selectivity analysis / receptor selectivity class: N6 carborane derivatives, USEF binding data; for Ki: read-out: Ki, A3 AR
human A3 receptor = target: T5, human A3 receptor (Homo sapiens, UniProt P0DMS8); assay: Functional cAMP assay in CHO-A3 cells; format: cell-based; details: for KB (antagonist mode; functional character at A3): inhibition of NECA (0.1 μM) effect on cAMP; for % Emax: maximal agonist effect; for EC50: read-out: EC50 (cAMP), agonist mode
T5 sequence (P0DMS8 1-318): T2 sequence (P0DMS8 1-318)

[8] = NIH laboratory, HEK293, [3H]-N6-R-phenylisopropyladenosine

T3 sequence (P29274 whole entry): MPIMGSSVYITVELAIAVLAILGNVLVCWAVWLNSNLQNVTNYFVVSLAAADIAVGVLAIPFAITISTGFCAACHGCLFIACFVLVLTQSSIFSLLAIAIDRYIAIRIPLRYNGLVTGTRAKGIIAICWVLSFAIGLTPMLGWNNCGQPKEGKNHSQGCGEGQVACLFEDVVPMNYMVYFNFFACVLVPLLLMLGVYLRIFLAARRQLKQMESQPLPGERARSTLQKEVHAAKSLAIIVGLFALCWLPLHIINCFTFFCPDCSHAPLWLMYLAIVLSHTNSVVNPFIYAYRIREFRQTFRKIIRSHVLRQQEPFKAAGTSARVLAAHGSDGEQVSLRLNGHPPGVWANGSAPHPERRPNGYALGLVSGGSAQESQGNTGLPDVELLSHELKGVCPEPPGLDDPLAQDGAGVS

Row | Compound | activity class (active / inactive) in SAR and selectivity analysis [2] | receptor selectivity class [2] | percent of inhibition, A1 AR [1, 8] [%] | percent of inhibition, A2A AR [3] [%] | area under the aggregation curve, ADP-induced platelet aggregation (human blood platelets; 10 μM compound) [arbitrary units] | area under the aggregation curve, ADP-induced platelet aggregation (human blood platelets; 50 μM compound) [arbitrary units] | also measured
1 | 8-[2-(1,12-dicarba-closo-dodecaboran-1-yl)ethyl]-adenosine [Compound 35] | inactive |  | 16 ± 7 | 18 ± 4 | 665.7 ± 86.8 | 682.3 ± 17.4 | percent of inhibition, A3 AR [2]: 9 ± 13%
2 | 8-[2-(1,12-dicarba-closo-dodecaboran-1-yl)ethynyl] adenosine [Compound 33] | inactive |  | 29 ± 7 | 17.1 ± 8 |  |  | percent of inhibition, A3 AR [2]: 48 ± 12%
3 | 8-[2-(1,12-dicarba-closo-dodecaboran-1-yl)ethynyl]-2′-deoxyadenosine [Compound 43] | inactive |  | 6 ± 6 | 10 ± 5 |  |  | percent of inhibition, A3 AR [2]: 1 ± 8%
4 | N^6-(3-phenylpropyl)-2-chloro-2′-deoxyadenosine [Compound 28] |  |  |  |  |  |  | percent of inhibition, A2A AR [4]: 14 ± 2 %^a; percent of inhibition, A2B AR [5]: 1 ± 1 %^a
5 | N^6-[3-(1,12-Dicarba-closo-dodecaboran-1-yl)propyl]adenosine [Compound 39] |  |  | 32 ± 1 | 0 ± 1 | 678.4 ± 55.7 | 658.0 ± 46.8 | percent of inhibition, A3 AR [2]: 0 ± 12%
6 | N^6-[3-(1,12-dicarba-closo-dodecaboran-1-yl)propyl]-2-chloro-2′-deoxyadenosine [Compound 27] |  |  |  |  |  |  | percent of inhibition, A1 AR [6]: 25 ± 1 %^a; percent of inhibition, A2A AR [4]: 1 ± 1 %^a; Ki ([5]; read-out: Ki, A2B AR): 4670 nM; percent of inhibition, A3 AR [7]: 10 ± 3 %^a
7 | N^6-[3-(1,12-dicarba-closo-dodecaboran-1-yl)propyl]-2-chloroadenosine [Compound 23] |  |  |  |  | 715.3 ± 85.8 | 657.0 ± 67.2 | percent of inhibition, A2A AR [4]: 1 ± 1 %^a
8 | N^6-[(1,12-dicarba-closo-dodecaboran-1-yl)but-4-yl]-5′-ethylcarbamoyl-adenosine [Compound 15] |  |  |  |  | 698.7 ± 74.4 | 657.1 ± 70.7 | KB (antagonist mode; functional character at A3) (human A3 receptor): no antagonist; % Emax (human A3 receptor): 99%; EC50 (human A3 receptor): 1010 nM; percent of inhibition, A1 AR [6]: 40 ± 2 %^a; percent of inhibition, A2A AR [4]: 9 ± 1 %^a; percent of inhibition, A2B AR [5]: 7 ± 2 %^a; activity class (active / inactive) in selectivity analysis [7]: active; receptor selectivity class [7]: A3 AR selective; Ki [7]: 437 nM
9 | N^6-[(1,12-dicarba-closo-dodecaboran-1-yl)but-4-yl]adenosine [Compound 7] |  |  |  |  | 686.5 ± 66.1 | 642.8 ± 45.4 | KB (antagonist mode; functional character at A3) (human A3 receptor): no antagonist; % Emax (human A3 receptor): 103%; EC50 (human A3 receptor): 271 nM; percent of inhibition, A1 AR [6]: 29 ± 1 %^a; percent of inhibition, A2A AR [4]: 2 ± 1 %^a; percent of inhibition, A2B AR [5]: 1 ± 1 %^a; activity class (active / inactive) in selectivity analysis [7]: active; receptor selectivity class [7]: A3 AR selective; Ki [7]: 444 nM
10 | N^6-[(1,12-dicarba-closo-dodecaboran-1-yl)prop-3-yl]-5′-ethylcarbamoyl adenosine [Compound 17] |  |  |  |  | 646.2 ± 58.6 | 639.5 ± 64.7 | percent of inhibition, A1 AR [6]: 18 ± 3 %^a; percent of inhibition, A2A AR [4]: 1 ± 1 %^a; percent of inhibition, A2B AR [5]: 4 ± 4 %^a; percent of inhibition, A3 AR [7]: 34 ± 4 %^a; activity class (active / inactive) in selectivity analysis [7]: inactive

Second part, led by results:

Row | activity class (active / inactive) in SAR and selectivity analysis [2] | receptor selectivity class [2] | percent of inhibition, A1 AR [1, 8] [%] | percent of inhibition, A2A AR [3] [%] | Compound | area under the aggregation curve, ADP-induced platelet aggregation (human blood platelets; 10 μM compound) [arbitrary units] | area under the aggregation curve, ADP-induced platelet aggregation (human blood platelets; 50 μM compound) [arbitrary units] | also measured
11 | active | not selective |  |  | 2-Ethynyl-(1,12-dicarba-closo-dodecaboran-1-yl)adenosine [Compound 41] |  |  | Ki ([1]; read-out: Ki, A1 AR, NIH laboratory, HEK293, [3H]-N6-R-phenylisopropyladenosine): 2870 ± 1690 nM; Ki [2]: 206 ± 31 nM; Ki ([3]; read-out: Ki, A2A AR, NIH laboratory, [3H]-2-[p-(2-carboxyethyl)phenyl-ethylamino]-5′-N-ethylcarboxamidoadenosine): 3070 ± 530 nM
12 |  |  | 27 ± 9 | 12 ± 14 | 2-ethyl-(1,12-dicarba-closo-dodecaboran-2-yl)arabinoadenosine [Compound 49] |  |  | percent of inhibition, A3 AR [2]: 25 ± 8%
13 | active | A3 selective | 15 ± 1 | 17 ± 2.7 | 2-ethynyl-(1,12-dicarba-closo-dodecaboran-2-yl) arabinoadenosine [Compound 47] |  |  | Ki [2]: 4390 ± 2020 nM
14 |  |  | 6 ± 10 | 7 ± 2 | 2′-O-(1,12-dicarba-closo-dodecaboran-1-yl)propyleneoxymethyl]-adenosine [Compound 37] | 661.1 ± 61.3 | 616.0 ± 24.7 | percent of inhibition, A3 AR [2]: 19 ± 14%
15 | active | A3 selective |  |  | Nc1ncnc2c1nc(C#Cc1ccccc1)n2[C@@H]1O[C@H](CO)[C@@H](O)[C@H]1O [Compound 34, 8-(2-phenylethynyl)adenosine] |  |  | inhibition at 10 µM ([1]; read-out: percent of inhibition, A1 AR): 11 ± 3%
16 | inactive |  |  |  | Nc1ncnc2c1nc(CCc1ccccc1)n2[C@@H]1O[C@H](CO)[C@@H](O)[C@H]1O [Compound 36, 8-(2-phenylethyl)adenosine] |  |  | 
17 | active | not selective |  |  | Nc1nc(C#Cc2ccccc2)nc2c1ncn2[C@@H]1O[C@H](CO)[C@@H](O)[C@H]1O [Compound 42, 2-Phenylethynyladenosine] |  |  | 
18 | active | not selective |  |  | Nc1ncnc2c1nc(C#Cc1ccccc1)n2[C@H]1C[C@H](O)[C@@H](CO)O1 [Compound 44] |  |  | 
19 | inactive | not selective |  |  | Nc1nc(CCc2ccccc2)nc2c1ncn2[C@@H]1O[C@H](CO)[C@@H](O)[C@H]1O [Compound 46] |  |  | 
20 | active | A3 selective |  |  | Nc1nc(C#Cc2ccccc2)nc2c1ncn2[C@@H]1O[C@H](CO)[C@@H](O)[C@@H]1O [Compound 48] |  |  | 
21 | inactive |  |  |  | Nc1nc(CCc2ccccc2)nc2c1ncn2[C@@H]1O[C@H](CO)[C@@H](O)[C@@H]1O [Compound 50] |  |  | 
22 | inactive |  |  |  | Nc1ncnc2c1nc(CCc1ccccc1)n2[C@H]1C[C@H](O)[C@@H](CO)O1 [Compound 52] |  |  | 
